In PubChem BioAssay (NCI):
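The compound was tested at five concentrations on cells cultured in 96-well plates, with a 48-hour exposure period. TGI marks complete inhibition of growth.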

Key:
Experiment in all cases: NCI anticancer screen, dose series, 48 h
[1] = test system: SF-295 CNS
[2] = test system: A498 renal
[3] = test system: LOX IMVI melanoma
[4] = test system: SNB-19 CNS
[5] = test system: OVCAR-3 ovarian
[6] = test system: MDA-MB-231 breast
[7] = test system: MALME-3M melanoma
[8] = test system: ACHN renal
[9] = test system: MDA-N
[10] = test system: HCT-15 colon
[11] = test system: U251 CNS

SMILES	TGI [1]	TGI [2]	TGI [3]	TGI [4]	TGI [5]	TGI [6]	TGI [7]	TGI [8]	TGI [9]	TGI [10]	TGI [11]
COc1ccccc1N(CN1C(=O)CCC1C(=O)O)C(C)=O (configuration not stated)	> 100 µM	> 100 µM	> 100 µM	> 100 µM	> 100 µM	> 100 µM	> 100 µM	> 100 µM	> 100 µM	> 100 µM	> 100 µM
Nc1nc(Cl)c(CO)c(NCC2(CO)CC(CCc3ccccc3)C2)n1 (configuration not stated)	> 100 µM	> 100 µM	50.4 µM	> 100 µM	63.1 µM	39.1 µM	42.5 µM	> 100 µM	> 100 µM	> 100 µM	> 100 µM
COc1ccc(/C=C2\CCC(C)C3C2=NN(c2ccccc2)C3c2ccc(OC)c(OC)c2)cc1OC (configuration not stated)	7.55 µM	12.3 µM	8.63 µM	36.2 µM	> 100 µM	12.5 µM	16.7 µM	14.6 µM	29.2 µM	9.92 µM	> 100 µM
COc1cc2ncnc(Nc3cccc(Cl)c3)c2cc1OC	42.4 µM	9.84 µM	43 µM	82.1 µM	35.8 µM	54 µM	19.8 µM	54.5 µM	42.6 µM	52.8 µM	79.4 µM
COc1nc(N=P(c2ccccc2)(c2ccccc2)c2ccccc2)cc(=O)[nH]1	> 100 µM	> 100 µM	> 100 µM	> 100 µM	> 100 µM	> 100 µM	> 100 µM	> 100 µM	> 100 µM	> 100 µM	> 100 µM
CC(=O)N(C(C)=O)n1c(Cc2ccc(Cl)cc2)n[nH]c1=O	> 100 µM	> 100 µM	> 100 µM	> 100 µM	> 100 µM	> 100 µM	> 100 µM	> 100 µM	> 100 µM	> 100 µM	> 100 µM
Cc1c(C)c(C)n(C2OC(CO)C(O)C(O)C2O)c(=S)c1C#N (configuration not stated)	> 100 µM	> 100 µM	> 100 µM	> 100 µM	> 100 µM	> 100 µM	> 100 µM	> 100 µM	> 100 µM	> 100 µM	> 100 µM
O=S(=O)(SC1=NCCN1)c1ccc2ccccc2c1	65.8 µM	> 100 µM	> 100 µM	39.1 µM	97.2 µM	42.9 µM	> 100 µM	> 100 µM	43.9 µM	71 µM	54.1 µM
CCCCCCCCCCCCN(CC(O)C(O)C(OC1OC(CO)C(O)C(O)C1O)C(O)CO)C(=O)CCCCCCCCCCC (configuration not stated)	37.3 µM	41.8 µM	41.3 µM	35.4 µM	49.2 µM	42.7 µM	36 µM	31 µM	38.2 µM	35.4 µM	32.6 µM
COC(=O)c1cc2c(cc1CC1Cc3cc4c(cc3C1=O)CCC4)CCC2 (configuration not stated)	89.2 µM	> 100 µM	> 100 µM	> 100 µM	> 100 µM	> 100 µM	> 100 µM	> 100 µM	> 100 µM	> 100 µM	> 100 µM
O=C(O)c1ccccc1/C=N/NC1=NCCN1	> 100 µM	> 100 µM	> 100 µM	> 100 µM	> 100 µM	> 100 µM	> 100 µM	> 100 µM	> 100 µM	> 100 µM	> 100 µM
O=C1CN(C(=O)C2CCCN2C(=O)C2CCCN2)C(=O)CN1 (configuration not stated)	> 100 µM	> 100 µM	> 100 µM	> 100 µM	> 100 µM	> 100 µM	> 100 µM	> 100 µM	> 100 µM	> 100 µM	> 100 µM
O=C1CSSCC(=O)Nc2ccccc2N1	> 100 µM	> 100 µM	> 100 µM	> 100 µM	> 100 µM	> 100 µM	> 100 µM	> 100 µM	> 100 µM	> 100 µM	> 100 µM
Nc1nc(I)nc2c1ncn2C1OC(COS(N)(=O)=O)C(O)C1O (configuration not stated)	0.168 µM	< 0.01 µM	0.0251 µM	< 0.013 µM	0.012 µM	< 0.0238 µM	< 0.01 µM	0.211 µM	0.0135 µM	0.305 µM	0.0243 µM
N#CC1C(=O)N(c2ccccc2)NC12OC(=O)c1ccncc12 (configuration not stated)	> 20 µM	> 20 µM	> 20 µM	> 20 µM	> 20 µM	> 20 µM	> 20 µM	> 20 µM	> 20 µM	> 20 µM	> 20 µM
COc1ccccc1NC(=S)Nc1cc(C)cc(C)n1	> 100 µM	> 100 µM	> 100 µM	> 100 µM	> 100 µM	> 100 µM	> 100 µM	> 100 µM	> 100 µM	> 100 µM	> 100 µM
O=c1[nH]nc(-c2ccccc2)n1/N=C/c1ccc([N+](=O)[O-])cc1	> 77.7 µM	49.7 µM	> 100 µM	> 100 µM	> 100 µM	> 63.8 µM	> 100 µM	> 100 µM	> 100 µM	> 100 µM	20.8 µM
N#CC12CNCC1CN=N2 (configuration not stated)	> 100 µM	> 100 µM	> 100 µM	> 100 µM	> 100 µM	> 100 µM	> 100 µM	> 100 µM	> 100 µM	> 100 µM	> 100 µM
COC(=O)CC(c1cn(S(=O)(=O)c2ccc(C)cc2)c2ccccc12)C1C[C@@H](C(=O)OC)N(C(=O)OC(C)(C)C)C1=O (some centres not stated)	> 100 µM	> 100 µM	> 100 µM	> 100 µM	> 100 µM	> 100 µM	> 100 µM	> 100 µM	> 100 µM	> 100 µM	> 100 µM

SMILES	TGI [1]	TGI [2]	TGI [3]	TGI [4]	TGI [5]	TGI [6]	TGI [7]	TGI [8]	TGI [9]	TGI [10]	TGI [11]
COc1cc(/C=C2/SC(c3ccccc3)N(c3ccccc3Cl)C2=O)cc(OC)c1OC (configuration not stated)	> 100 µM	> 100 µM	41.7 µM	> 100 µM	> 100 µM	> 100 µM	64.7 µM	> 100 µM	69.7 µM	> 100 µM	67.8 µM
O=C(O)C1CCCN(CCc2c[nH]c3ccccc23)C1 (configuration not stated)	> 100 µM	> 100 µM	> 100 µM	> 100 µM	> 100 µM	> 100 µM	> 100 µM	> 100 µM	> 100 µM	> 100 µM	> 100 µM
COC(=O)C1=C(O)C(C(=O)OC)[C@]2(O)[C@H](C(=O)OC)[C@H]1C[C@@H](c1ccc(Cl)cc1)[C@H]2C(=O)OC (some centres not stated)	20.6 µM	27.2 µM	30.1 µM	29.8 µM	13.4 µM	37.6 µM	25.1 µM	39.9 µM	22.5 µM	47.7 µM	20.9 µM
CN(C)/N=C(/CC(O)(C(F)(F)F)C(F)(F)F)c1ccc([N+](=O)[O-])cc1	> 100 µM	> 100 µM	> 100 µM	> 100 µM	> 100 µM	> 100 µM	> 100 µM	> 100 µM	> 100 µM	> 100 µM	> 100 µM
O=c1[nH]nc(-c2ccccc2)n1-c1ccncc1	> 100 µM	> 100 µM	> 100 µM	> 100 µM	> 100 µM	> 100 µM	> 100 µM	> 100 µM	> 100 µM	> 100 µM	> 100 µM
CC1(C)C2CCC(CN)(C2)C1N (configuration not stated)	> 100 µM	> 100 µM	> 100 µM	> 100 µM	> 100 µM	> 100 µM	> 100 µM	> 100 µM	> 100 µM	> 100 µM	> 100 µM
c1nc(N2CC2)c2cnn(C3CCCCO3)c2n1 (configuration not stated)	> 100 µM	> 100 µM	> 100 µM	> 100 µM	> 100 µM	> 100 µM	> 100 µM	> 100 µM	> 100 µM	> 100 µM	> 100 µM
Cc1ccc(S(=O)(=O)c2ccsc2NC(=O)C(F)(F)F)cc1	> 100 µM	> 100 µM	> 100 µM	> 100 µM	> 100 µM	56.2 µM	> 100 µM	> 100 µM	98.9 µM	> 100 µM	> 100 µM
c1ccc(-c2cn3c(nc4ccccc43)c(-c3ccccc3)n2)cc1	> 71.9 µM	> 78.1 µM	> 100 µM	81.7 µM	> 100 µM	> 100 µM	> 100 µM	> 100 µM	> 31.6 µM	> 100 µM	32.1 µM
O=C(O)COCC(=O)N(CCOCCN(Cc1ccccc1)C(=O)COCC(=O)O)Cc1ccccc1	> 100 µM	> 100 µM	> 100 µM	> 100 µM	> 100 µM	> 100 µM	> 100 µM	> 100 µM	> 100 µM	> 100 µM	> 100 µM
COC1(C)CP(=O)(OC(C)C)CC(C)=C1Cl (configuration not stated)	51 µM	37.6 µM	39.4 µM	63.7 µM	24.2 µM	34.1 µM	40.8 µM	> 100 µM	47.7 µM	29.2 µM	48.9 µM
COc1cc(/C=N\N(C)C)cc(/C=N/N(C)C)c1O	8.9 µM	> 100 µM	58.7 µM	> 100 µM	53.4 µM	80 µM	56 µM	87.9 µM	> 100 µM	> 100 µM	74.8 µM
OC1(c2ccc(Cl)cc2)C(N2CCCC2)c2ccccc2C2=NCCN21 (configuration not stated)	30.9 µM	60.9 µM	36.7 µM	> 100 µM	> 100 µM	> 100 µM	36.9 µM	> 100 µM	51.4 µM	> 100 µM	> 100 µM
C[N+](C)(C)CCCSc1nc2ccccc2[nH]1	> 100 µM	> 100 µM	> 100 µM	> 100 µM	> 100 µM	> 100 µM	> 100 µM	> 100 µM	> 100 µM	> 100 µM	> 100 µM
CCOC(=O)C1(Cc2ccccc2)C=CN(C(=O)c2ccccc2)C=C1	> 100 µM	74.3 µM	> 100 µM	> 100 µM	> 100 µM	> 100 µM	88.9 µM	> 100 µM	65.2 µM	> 100 µM	> 100 µM
C/C(Cl)=N/OC(=O)Nc1ccc(S(N)(=O)=O)c(C)c1	45.3 µM	41.3 µM	6.19 µM	32.3 µM	8.9 µM	22 µM	4.5 µM	5.37 µM	24.4 µM	3.86 µM	33.7 µM
O=C1c2[nH]c3ccc(Br)cc3c2CCN1Cc1ccc(Cl)cc1	26.2 µM	34.1 µM	25.9 µM	32.7 µM	28.5 µM	28.7 µM	33.7 µM	22.7 µM	30.7 µM	18.1 µM	26.8 µM
COc1ccc2c(c1)-c1nc(=S)n(CCCN(C)C)c3ccc([N+](=O)[O-])c(c13)N2	21.2 µM	22.2 µM	4.57 µM	11 µM	18.5 µM	2.1 µM	2.33 µM	14.4 µM	2.2 µM	17.1 µM	17.7 µM
